Target: human UDG (Homo sapiens, UniProt P13051)
Experiment: Differential scanning fluorimetry (nanoDSF), intrinsic tryptophan fluorescence and scattering
Type: binding
Set-up: Full-length UDG at 14 μM in 137 mM NaCl
Method: The data for thermophoresis was recorded at 20° C. using the blue LED at 20% and IR-Laser at 40%. The isotherm derived from the raw data and fitted according to the law of mass action. […] Then 2 μL of 10× Sypro dye and 2 μL of ddH20 (Applied biosystems cat #4461141) were added. Monitoring of fluorescence took place for 2 hr (Bioraid CFX96, Hex filter, 25-97° C., 1.6° C./2 min). Negative (−) derivative RFU raw data and plots from the machine were obtained and analyzed. […] Melting temperature (Tm) value was taken directly from the midpoint on the −dRFU/dt vs. temperature graph. Each point on the graph represents an average of three data sets. Y error bars represent the standard deviation.
Differential scanning fluorimetry (DSF) measurements were performed on a Prometheus NT.48 instrument (NanoTemper Technologies, Munich, Germany). […] The capillaries were filled with 10 μL sample and placed on the sample holder. A temperature gradient of 1° C.·min^−1 from 25 to 90° C. was applied and the intrinsic protein fluorescence at 330 and 350 nm was recorded. Additional aggregation onset temperatures are detected via back-reflection light scattering. […] Therefore, analysis of single wavelength was used to determine the melting temperature.

human UDG, sequence (P13051 whole entry): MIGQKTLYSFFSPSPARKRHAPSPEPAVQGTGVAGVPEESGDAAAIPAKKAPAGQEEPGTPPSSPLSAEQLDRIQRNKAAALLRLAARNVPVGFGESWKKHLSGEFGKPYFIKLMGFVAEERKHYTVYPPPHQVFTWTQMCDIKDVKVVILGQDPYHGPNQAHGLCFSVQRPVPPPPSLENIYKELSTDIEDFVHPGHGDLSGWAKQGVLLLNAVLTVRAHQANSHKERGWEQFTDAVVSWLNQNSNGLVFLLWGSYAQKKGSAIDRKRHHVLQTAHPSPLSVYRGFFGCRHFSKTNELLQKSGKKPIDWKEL

For `O=C(O)C1=CC(=C(c2ccc(O)c(C(=O)O)c2)c2ccc(O)c(C(=O)O)c2)C=CC1=O` [ATA, aurintricarboxylic acid], the “protein aggregation onset (scattering)” value (UDG in the presence of ATA vs UDG alone) was “induced protein aggregation at lower temperatures than UDG alone” and the “mean melting temperature of UDG in the presence of ATA” value (nanoDSF, 330 nm, UDG alone 53.5 °C) was 51 °C.
